Laboratory results: the supplement of paper PMC10307832

Tests used:
Experiment in all cases: relative viability (nuclei count vs DMSO), 5 days (fraction); higher = more cells survive
[1] = compound: Cc1cc([C@@H](C)Nc2ccccc2C(=O)O)c2nc(N3CCOCC3)cc(=O)n2c1 [AZD6482] + CC(=O)c1c(C)c2cnc(Nc3ccc(N4CCNCC4)cn3)nc2n(C2CCCC2)c1=O [Palbociclib] (partner 0.5 µM)
Outline: (§1)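 Dosing by pin tool came one day after lung cancer cell lines were seeded in 1536-well plates, using either one drug or a fixed anchor-drug dose plus five library-drug doses (not always all listed) in √10 steps. After 5 days, nuclei were counted on 4× images. Relative viability is treated-well nuclei count divided by vehicle-well nuclei count, and values are medians of duplicate plates.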

[2] = compound: COc1cc2nc(N3CCCN(C)CC3)nc(NC3CCN(Cc4ccccc4)CC3)c2cc1OC + C[C@]1(O)C[C@@H](c2nc(-c3ccc4ccc(-c5ccccc5)nc4c3)c3c(N)nccn32)C1 [Linsitinib] (partner 1 µM)
Outline: as §1

[3] = compound: Cc1cc([C@@H](C)Nc2ccccc2C(=O)O)c2nc(N3CCOCC3)cc(=O)n2c1 [AZD6482] + Cc1nc(Nc2ncc(C(=O)Nc3c(C)cccc3Cl)s2)cc(N2CCN(CCO)CC2)n1 [Dasatinib] (partner 0.075 µM)
Outline: as §1

[4] = compound: COc1cc2nc(N3CCCN(C)CC3)nc(NC3CCN(Cc4ccccc4)CC3)c2cc1OC + CC(C)C[C@H](NC(=O)[C@H](Cc1ccccc1)NC(=O)c1cnccn1)B(O)O [Bortezomib] (partner 0.002 µM)
Outline: as §1

Row | Cell Line | relative viability ([1]; first compound 0.08 µM) | relative viability ([1]; first compound 0.253 µM) | relative viability ([1]; first compound 0.8 µM) | relative viability ([1]; first compound 2.53 µM) | relative viability ([1]; first compound 8 µM) | relative viability ([2]; first compound 0.2 µM) | relative viability ([2]; first compound 0.6325 µM) | relative viability ([2]; first compound 2 µM) | relative viability ([2]; first compound 6.325 µM) | relative viability ([3]; first compound 0.08 µM) | relative viability ([3]; first compound 0.253 µM) | relative viability ([3]; first compound 0.8 µM) | relative viability ([3]; first compound 2.53 µM) | relative viability ([3]; first compound 8 µM) | relative viability ([4]; first compound 0.2 µM) | relative viability ([4]; first compound 0.6325 µM) | relative viability ([4]; first compound 2 µM) | relative viability ([4]; first compound 6.325 µM)
1 | LXF-289 | 0.565 | 0.605 | 0.634 | 0.631 | 0.55 | 0.956 | 0.954 | 0.98 | 0.923 | 0.188 | 0.15 | 0.193 | 0.106 | 0.123 | 0.98 | 0.973 | 1.03 | 0.985
2 | NCI-H23 | 0.471 | 0.421 | 0.487 | 0.396 | 0.325 | 0.562 | 0.733 | 0.833 | 0.53 | 0.746 | 0.952 | 0.511 | 0.572 | 0.368 | 1 | 0.943 | 1.2 | 0.918
3 | NCI-H322M | 0.447 | 0.486 | 0.476 | 0.424 | 0.39 | 0.826 | 0.887 | 0.939 | 0.901 | 0.261 | 0.249 | 0.27 | 0.207 | 0.242 | 1.31 | 1.28 | 1.12 | 1.2
4 | NCI-H441 | 0.248 | 0.246 | 0.215 | – | 0.182 | 0.527 | – | 0.515 | 0.553 | 0.568 | 0.592 | 0.704 | – | 0.502 | 0.454 | – | 0.519 | 0.36
5 | NCI-H460 | 0.124 | 0.138 | 0.269 | 0.135 | 0.129 | 0.73 | 0.792 | 0.762 | 0.267 | 0.414 | 0.404 | 0.562 | 0.241 | 0.215 | 1.04 | 1.05 | 1.14 | 0.864
6 | NCI-H520 | 0.123 | 0.157 | 0.179 | 0.146 | 0.15 | 1.13 | 0.931 | 1.1 | 0.747 | 0.154 | 0.153 | 0.138 | 0.144 | 0.166 | 0.792 | 0.623 | 0.777 | 0.217
7 | NCI-H647 | 0.305 | 0.293 | 0.309 | 0.241 | 0.195 | 1.17 | 1.03 | 1.14 | 0.599 | 0.133 | 0.152 | 0.153 | 0.0999 | 0.096 | 0.967 | 1 | 1.35 | 0.449
8 | NCI-H650 | 0.364 | 0.291 | 0.276 | 0.237 | 0.271 | 0.866 | 0.77 | 0.943 | 0.534 | 0.446 | – | 0.453 | 0.292 | 0.319 | 0.752 | 0.739 | 1.05 | 0.694
9 | NCI-H661 | 0.41 | 0.43 | 0.41 | 0.387 | 0.364 | 0.553 | 0.56 | 0.779 | 0.634 | 0.75 | 0.857 | 0.967 | 0.502 | 0.489 | 0.813 | 0.793 | 0.935 | 0.868
10 | NCI-H727 | 0.63 | 0.63 | 0.811 | – | 0.532 | 0.316 | 0.277 | 0.369 | 0.221 | 0.401 | 0.41 | 0.41 | 0.266 | 0.395 | 0.756 | 0.893 | 0.751 | 0.618
11 | NCI-H838 | 0.167 | 0.203 | 0.204 | 0.167 | 0.163 | 1.07 | 0.936 | 1.11 | 0.85 | 0.24 | 0.248 | 0.257 | 0.218 | 0.28 | 0.858 | 1.02 | 0.73 | 0.721
12 | NCI-H1355 | 0.294 | 0.374 | 0.32 | 0.279 | 0.286 | 0.881 | 0.784 | 0.831 | 0.808 | 0.479 | 0.496 | 0.766 | 0.492 | 0.456 | 1.23 | 1.21 | 1.29 | 1.1
13 | NCI-H1437 | 0.353 | 0.319 | 0.36 | 0.316 | 0.24 | 1.06 | 0.956 | 1.11 | 0.891 | 0.599 | 0.316 | 0.44 | 0.282 | 0.244 | 0.614 | 0.683 | 0.65 | 0.459
14 | NCI-H1651 | 0.485 | 0.493 | 0.508 | 0.486 | 0.496 | 1.02 | 0.903 | 1.09 | 0.893 | 0.335 | 0.435 | 0.401 | 0.337 | 0.307 | 0.884 | 0.939 | 1.03 | 0.934
15 | NCI-H1666 | 0.637 | 0.576 | 0.722 | 0.638 | 0.681 | 0.866 | 0.919 | 0.783 | 0.675 | 0.801 | 0.845 | 0.906 | 0.737 | 0.946 | 0.832 | 0.781 | 0.701 | 0.468
16 | NCI-H1734 | 0.301 | 0.333 | 0.346 | 0.298 | 0.272 | 0.964 | 0.811 | 0.832 | 0.83 | 0.459 | 0.406 | 0.424 | 0.267 | 0.338 | 0.919 | 0.792 | 1.05 | 0.662
17 | NCI-H1755 | 0.425 | 0.416 | 0.443 | 0.444 | 0.379 | 0.974 | 0.982 | 0.946 | 0.932 | 0.299 | 0.379 | 0.385 | 0.288 | 0.299 | 1 | 0.965 | 0.922 | 0.88
18 | NCI-H1792 | 0.593 | 0.611 | 0.648 | 0.561 | 0.512 | 0.61 | 0.512 | 0.496 | 0.598 | 0.769 | 0.703 | 0.862 | 0.569 | 0.515 | 0.952 | 1.01 | 1.08 | 1.22
